In ChEMBL document CHEMBL1201862, “PubChem BioAssay data set” (2004):
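Compound exposure: 48 hours, 5 concentrations, 96-well plates. The concentration for 50% growth inhibition is given as GI50.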 Active and inactive are the calls of the source. Rule as the data show it: active = GI50 up to about 1.1 µM and inactive = higher.

Columns and labels:
Assay in all cases: NCI anticancer screen, dose series, 48 h
CCRF-CEM = system: CCRF-CEM
EKVX = system: EKVX
HCC 2998 = system: HCC 2998
Hs-578T = system: Hs-578T
KM12 = system: KM12
M14 = system: M14
MDA-MB-435 = system: MDA-MB-435
MDA-N = system: MDA-N
NCI-H226 = system: NCI-H226
NCI-H460 = system: NCI-H460
OVCAR-8 = system: OVCAR-8
RPMI-8226 = system: RPMI-8226
RXF 393 = system: RXF 393
SF-268 = system: SF-268
SF-295 = system: SF-295
SN12C = system: SN12C
SNB-75 = system: SNB-75
SW-620 = system: SW-620
TK-10 = system: TK-10
NCI-H522 = system: NCI-H522

Measured: GI50

COc1ccc(/C=N/NC(=O)c2cnc3[nH]c(=O)n(C)c(=O)c3c2)cc1
inactive: CCRF-CEM > 100 µM | EKVX > 100 µM | HCC 2998 > 100 µM | Hs-578T 39.9 µM | KM12 > 100 µM | M14 > 100 µM | MDA-MB-435 > 100 µM | MDA-N > 100 µM | NCI-H226 64.1 µM | NCI-H460 > 100 µM | OVCAR-8 40.6 µM | RPMI-8226 > 100 µM | RXF 393 38.3 µM | SF-268 45.2 µM | SF-295 46.3 µM | SN12C 88.3 µM | SNB-75 13.1 µM | SW-620 > 100 µM | TK-10 46.5 µM

COc1ccc(/C=N/NC(=O)c2ccccc2Nc2ccccc2C(=O)N/N=C/c2ccc(OC)c(OC)c2)cc1OC
inactive: CCRF-CEM > 100 µM | EKVX > 100 µM | HCC 2998 > 100 µM | Hs-578T > 100 µM | KM12 > 100 µM | M14 36.5 µM | MDA-MB-435 > 100 µM | MDA-N > 100 µM | NCI-H226 > 100 µM | NCI-H460 > 100 µM | OVCAR-8 > 100 µM | RPMI-8226 > 100 µM | RXF 393 > 100 µM | SF-268 > 100 µM | SF-295 39.9 µM | SN12C > 100 µM | SNB-75 > 100 µM | SW-620 > 100 µM | TK-10 > 100 µM

CC(C(N)C(=O)NC(C(=O)O)C1OC(n2ccc(=O)[nH]c2=O)C(O)C1O)C(O)c1ccc(O)cn1 (centres undefined)
inactive: CCRF-CEM > 100 µM | EKVX > 100 µM | HCC 2998 > 100 µM | Hs-578T > 100 µM | KM12 > 100 µM | M14 > 100 µM | MDA-MB-435 > 100 µM | MDA-N > 100 µM | NCI-H460 > 100 µM | NCI-H522 > 100 µM | OVCAR-8 > 100 µM | RPMI-8226 > 100 µM | SF-268 > 100 µM | SF-295 > 100 µM | SN12C > 100 µM | SNB-75 > 100 µM | SW-620 > 100 µM | TK-10 > 100 µM

CCC1C(=O)C(O)[C@H]2[C@@H]3C(O)CC4=CC(=O)CC[C@]4(C)[C@H]3CC[C@]12C (some centres undefined)
inactive: CCRF-CEM > 50 µM | EKVX > 50 µM | HCC 2998 > 50 µM | Hs-578T > 50 µM | KM12 > 50 µM | M14 > 50 µM | MDA-MB-435 > 50 µM | MDA-N > 50 µM | NCI-H460 > 50 µM | NCI-H522 > 50 µM | OVCAR-8 > 50 µM | RPMI-8226 > 50 µM | SF-268 > 50 µM | SF-295 > 50 µM | SN12C > 50 µM | SNB-75 > 50 µM | SW-620 > 50 µM | TK-10 > 50 µM

CCN(CC)c1ccc2cc(C(=O)Nc3ccc(C)cc3)c(=N)oc2c1
inactive: CCRF-CEM > 100 µM | EKVX > 100 µM | HCC 2998 > 100 µM | Hs-578T > 100 µM | KM12 > 100 µM | M14 > 100 µM | MDA-MB-435 > 100 µM | MDA-N > 100 µM | NCI-H226 > 100 µM | NCI-H460 > 100 µM | OVCAR-8 > 100 µM | RPMI-8226 > 100 µM | RXF 393 > 100 µM | SF-268 > 100 µM | SN12C > 100 µM | SNB-75 > 100 µM | SW-620 > 100 µM

CC[C@@]1(C[C@H]2C[C@@]3(C(=O)OC)c4[nH]c5ccccc5c4CCN3C2=S)COC2(CCCCC2)O1
inactive: CCRF-CEM 7.23 µM | EKVX 58.9 µM | HCC 2998 15.2 µM | Hs-578T 10.6 µM | KM12 4.47 µM | M14 23.7 µM | MDA-MB-435 5.09 µM | MDA-N 66.8 µM | NCI-H460 5.78 µM | NCI-H522 59.2 µM | OVCAR-8 > 100 µM | RXF 393 59.6 µM | SF-268 62.5 µM | SF-295 22 µM | SN12C > 100 µM | SNB-75 17.8 µM | SW-620 3.13 µM | TK-10 11.2 µM
